Read-outs that look alike come from different tables or passages of the source.

Data on 17 compounds can be found in patent US20250163069A1, “HETEROCYCLIC DERIVATIVE, AND PHARMACEUTICAL COMPOSITION AND APPLICATION THEREOF” (priority 2022, published 2025).

One data set has as its system HCMV. Briefly: In vitro anti-HCMV activity, GFP reporter virus in MRC5 cells. It is filed as cell-based, Human Cytomegalovirus. The protocol: (§1) Experimental method for in vitro biological activity study: The HCMV virus used in this experiment contains a reporter gene GFP. The inhibitory activity of the compounds against HCMV was detected by detecting the expression of GFP, and the cytotoxicity was also determined; the compounds were tested at 8 concentrations, with 3-fold gradient dilution, and double wells. MRC5 cells were seeded in microtiter plates at a certain density and cultured overnight at 37° C. in 5% CO2. The compounds and viruses were added the next day. […] The final concentration of DMSO in the cell culture medium was 0.5%, the cells were cultured at 37° C. in 5% CO2 for 7 days, the fluorescence value of each well was detected using Acumen, and the original data were used to calculate the antiviral activity of the compounds. The cytotoxicity experiment was the same as the antiviral experiment, but without viral infection; CCK-8 reagent was used to detect cell viability, and the original data were used to calculate the cytotoxicity of the compounds. Software GraphPad Prism was used to analyze the dose-response curves of the compounds and calculate the EC50 and CC50 values (see Table 1 for the results).

The nature of a further data set: in vitro. It is filed as cell-based. Particulars: human. The protocol:
as §1, with “compounds.” for “compounds. Software GraphPad Prism was used to analyze the dose-response curves of the compounds and calculate the EC50 and CC50 values (see Table 1 for the results).”

The conditions of data set [1]: cited from earlier work.
A further data set concerns CMV virus. Particulars: after 28 days of treatment; cited from earlier work.
Data set [2] deals with human hepatocyte suspension. Nature of the data set: Hepatocyte metabolic stability test. The data set is classed as in vitro ADME. Particulars: for k: Human hepatocytes 1.0 × 10^6 cells/mL, tested compounds 1 μM, positive control 3 μM. As to the method: (§2) Test method: The compounds to be tested will be co-incubated with human hepatocyte suspension at a concentration of 1 μM. At different time points, ice acetonitrile containing internal standard was added to the system to terminate the reaction, after vortexing and centrifugation, the supernatant was taken, and the test compounds in the supernatant were analyzed by LC-MS/MS method. The in vitro intrinsic clearance rate was calculated according to the clearance rate constant of the tested compounds in the incubation system. 7-ethoxycoumarin and 7-hydroxycoumarin were used as positive controls, and the blank culture medium incubation group without hepatocytes was used as negative control.
(§3) Data analysis: The ratio of the peak areas of the analyte/internal standard (Aanalyte/AIS) was obtained by the instrument, and the remaining percentage (% Control) was calculated from the ratio of Aanalyste/AIS in the sample at non-zero time point to that at the zero time point. Ln (% Control) was plotted against incubation time and linearly fitted. The clearance constant (k, min^−1), clearance half-life (T1/2, min), and in vitro intrinsic clearance rate (CLint, hepatocyte, μL/min/10^6 cells) of the tested compounds were calculated using the following equation.
(§4) CLint,hepatic (mL/min/kg) refers to the inherent clearance rate of liver in vivo.

A short description of data set [3]: Hepatocyte metabolic stability test. The data set is classed as in vitro ADME, Human. Particulars: for half-life at 1 μM / hepatocyte CLint at 1 μM: tested compounds 1 μM; for CLint scaled at 1 μM: Human, scaled with 120 × 10^6 cells/g liver and 21 g liver/kg, read-out: CLint, hepatic. As to the method: as §2, §3, §4
The subject of the next data set is MRC5 cells. Nature of the data set: in vitro. The data set is classed as cell-based. Particulars: human, 7 days. The protocol: as §1, with “compounds.” for “compounds. Software GraphPad Prism was used to analyze the dose-response curves of the compounds and calculate the EC50 and CC50 values (see Table 1 for the results).”
The mark [4] stands for this setting: Human betaherpesvirus 5, 168 h, HCMV with GFP reporter, MRC5 cells, 7 days, read-out: EC50.
Where [5] appears, read: Human betaherpesvirus 5, MRC5, Table 1, read-out: activity in inhibiting HCMV.
Setting [6] is: hepatocyte suspension, Human hepatocytes 1.0 × 10^6 cells/mL, positive control 3 μM.
The mark [7] stands for this setting: Human hepatocytes 1.0 × 10^6 cells/mL, positive control 3 μM.

In the case of `COc1cccc(N2CCN(C3=Nc4c(F)cccc4[C@H](CC(=O)OCOC(=O)C(C)(C)C)N3c3cc(C(F)(F)F)ccc3OC)CC2)c1` [Compound I-13], the EC50 with HCMV (setting [4]) was found to be 2.76 nM. The compound further yielded a CC50 at 7 days in the data set “in vitro” of over 50000 nM.
With `COc1cc(N2CCN(C3=Nc4c(F)cccc4C(CC(=O)OCOC(C)=O)N3c3cc(C(F)(F)F)ccc3OC)CC2C)ccn1` (stereo not shown) [Compound I-49], the EC50 in the data set on HCMV (setting [4]) was 0.46 nM; in the data set with HCMV (setting [5]) it was under 1 nM. The same compound showed a CC50 at 7 days in “in vitro” of over 50000 nM.
Consider `COc1cccc(N2CCN(C3=Nc4c(F)cccc4C(CC(=O)O)N3c3cc(C(F)(F)F)ccc3OC)C[C@H]2C)c1` (stereo partly shown) [Compound I-23], for which the values for the EC50 in the data set on HCMV (setting [4]) and with HCMV (setting [5]) were 0.28 nM and under 1 nM, respectively. In the data set “in vitro”, this compound yielded a half-maximal cytotoxic concentration (CC50) at 7 days of over 50000 nM.
For the compound `COc1cccc(N2CCN(C3=Nc4c(F)cccc4[C@H](CC(=O)O)N3c3cc(C(F)(F)F)ccc3OC)CC2)c1` [Letermovir, letermovir], the bioavailability entry in data set [1] (hematopoietic cell transplant (HCT) recipients, letermovir alone) was “about 37%”. The bioavailability in data set [1] (with cyclosporin) is on record as 85%. For the same compound, in the data set on CMV virus, the “CMV virus detection in the patient” value is on record as “no CMV virus was detected”. Besides, the k in data set [2] is 0.0022 min⁻¹. In data set [3] (setting [6]), the half-life at 1 μM came to 5.27 h and the hepatocyte CLint at 1 μM was 2.2 µL/min/1e6 cells. Also, the CLint scaled at 1 μM in data set [3] (hepatocyte suspension) was found to be 5.53 mL/min/kg.
For the compound `COc1cc(N2CCN(C3=Nc4c(F)cccc4C(CC(=O)O)N3c3cc(C(F)(F)F)ccc3OC)C[C@H]2C)ccn1` (stereo partly shown) [Compound I-24], the EC50 with HCMV (setting [4]) is 0.46 nM; in the data set on HCMV (setting [5]) it was under 1 nM. The same compound had a CC50 at 7 days in “in vitro” of over 50000 nM.
Regarding `COc1cc(N2CCN(C3=Nc4c(F)cccc4[C@H](CC(=O)OCOC(C)=O)N3c3cc(C(F)(F)F)ccc3OC)C[C@H]2C)ccn1` [Compound I-53], the EC50 with HCMV (setting [4]) is 0.32 nM; in the data set with HCMV (setting [5]), under 1 nM. This compound also came in with a CC50 at 7 days in the data set “in vitro” of over 50000 nM.
Regarding `COc1cccc(N2CCN(C3=Nc4c(F)cccc4[C@H](CC(=O)OCOC(C)=O)N3c3cc(C(F)(F)F)ccc3OC)CC2)c1` [Compound I-8], the EC50 in the data set on HCMV (setting [4]) is 1.47 nM. The CC50 at 7 days in the data set “in vitro” is over 50000 nM.
Take `COC(=O)OCOC(=O)C[C@H]1c2cccc(F)c2N=C(N2CCN(c3cccc(OC)c3)CC2)N1c1cc(C(F)(F)F)ccc1OC` [Compound I-5]: in the data set with HCMV (setting [4]), the EC50 was determined as 2.62 nM. In addition, the CC50 at 7 days in “in vitro” is over 50000 nM.
`COc1cccc(N2CCN(C3=Nc4c(F)cccc4C(CC(=O)OCc4oc(=O)oc4C)N3c3cc(C(F)(F)F)ccc3OC)C[C@H]2C)c1` (single isomer, unassigned) [Compound I-41]: the EC50 in the data set with HCMV (setting [4]) was 0.15 nM; in the data set on HCMV (setting [5]), under 1 nM. In “in vitro”, the midpoint of cytotoxicity, the CC50 at 7 days, lay at 39300 nM.
`O=c1ccc2ccc(O)cc2o1` [7-hydroxycoumarin] had a k in data set [2] of 0.0401 min⁻¹. In data set [3] (setting [7]), this compound gave a half-life of 0.288 h and a hepatocyte CLint at 1 μM of 40.1 µL/min/1e6 cells. In addition, in data set [3] (hepatocytes), the CLint scaled at 1 μM was 101 mL/min/kg.
As to `COc1cccc(N2CC3CCC(C2)N3C2=Nc3c(F)cccc3C(CC(=O)O)N2c2cc(C(F)(F)F)ccc2OC)c1` (stereo not shown) [Compound I-19], the EC50 in the data set with HCMV (setting [4]) amounted to 2.81 nM. The compound further registered a CC50 at 7 days in “in vitro” of 23800 nM.
For `COc1cccc(N2CCN(C3=Nc4c(F)cccc4[C@H](CC(=O)OCc4oc(=O)oc4C)N3c3cc(C(F)(F)F)ccc3OC)CC2)c1` [Compound I-17], in the data set with HCMV (setting [4]), the EC50 was determined as 1.52 nM. Besides, the midpoint of cytotoxicity with MRC5 cells, the CC50, lay at 43500 nM.
Take `COc1cc(N2CCN(C3=Nc4c(F)cccc4[C@H](CC(=O)O)N3c3cc(C(F)(F)F)ccc3OC)C[C@H]2C)ccn1` [Compound I-26]: the EC50 was 0.26 nM in the data set with HCMV (setting [4]) and under 1 nM in the data set with HCMV (setting [5]). For the same compound, the CC50 at 7 days in the data set “in vitro” is over 50000 nM.
In turn, `CCOc1ccc2ccc(=O)oc2c1` [7-ethoxycoumarin] registered a k in data set [2] of 0.0348 min⁻¹. Also, in data set [3] (setting [6]), the half-life at 1 μM was found to be 0.332 h and the hepatocyte CLint at 1 μM came out at 34.8 µL/min/1e6 cells. Also, the CLint scaled at 1 μM in data set [3] (hepatocyte suspension) came to 87.7 mL/min/kg.
On to `COc1cccc(N2CCN(C3=Nc4c(F)cccc4[C@H](CC(=O)OCOC(C)=O)N3c3cc(C(F)(F)F)ccc3OC)C[C@H]2C)c1` [Compound I-33], for which the EC50 with HCMV (setting [4]) was 0.06 nM; with HCMV (setting [5]), under 1 nM. The same compound yielded a CC50 at 7 days in the data set “in vitro” of over 50000 nM.
Turning to `COc1cccc(N2CCN(C3=Nc4c(F)cccc4[C@H](CC(=O)O)N3c3cc(C(F)(F)F)ccc3OC)CC2)c1` (racemic) [Letermovir (racemic), letermovir (racemic), reference compound], the EC50 in the data set with HCMV (HCMV with GFP reporter, MRC5 cells, 7 days, read-out: EC50) is 3.92 nM.
Consider `COc1cccc(N2CCN(C3=Nc4c(F)cccc4[C@H](CC(=O)O)N3c3cc(C(F)(F)F)ccc3OC)C[C@H]2C)c1` [Compound I-25], for which the EC50 with HCMV (setting [4]) stood at 0.17 nM. For the same compound, the EC50 with HCMV (setting [5]) is under 1 nM. The k in data set [2] turned out to be 0.000154 min⁻¹. Moreover, the “metabolic stability of human hepatocytes compared with letermovir” value in data set [2] (human hepatocytes) is “better metabolic stability”. In addition, in data set [3] (setting [6]), the half-life at 1 μM stood at 74.9 h and the hepatocyte CLint at 1 μM is 0.154 µL/min/1e6 cells. Also, in data set [3] (hepatocyte suspension), the CLint scaled at 1 μM was found to be 0.388 mL/min/kg. Besides, the half-maximal cytotoxic concentration (CC50) at 7 days in the data set “in vitro” is over 50000 nM.
